Reference: PubChem BioAssay AID1963829 (Molecular Pharmacology Branch, DTP, NCI, 2024)

Tested on: 935938-334-R-J1-PDC complex spheroid viability
Assay: Anticancer human tumor 935938-334-R-J1-PDC patient-derived small intestine adenocarcinoma cell line growth inhibition [POLQ]
Details: for IC50: curve of first compound; for viability, T/C: stronger effect = lower value
Method in brief: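 Three-cell-type spheroids modelling solid tumor plus stroma served as the readout system; POL inhibitors were tested individually and in combination, concentration ranges set by clinical Cmax where known.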

[1] = second compound 0.0316 µM, first compound 0.0316 µM
[2] = second compound 0.0316 µM, first compound 0.1 µM
[3] = second compound 0.0316 µM, first compound 0.316 µM
[4] = second compound 0.0316 µM, first compound 1 µM
[5] = second compound 0.1 µM, first compound 0.0316 µM
[6] = second compound 0.1 µM, first compound 0.1 µM
[7] = second compound 0.1 µM, first compound 0.316 µM
[8] = second compound 0.1 µM, first compound 1 µM
[9] = second compound 0.316 µM, first compound 0.0316 µM
[10] = second compound 0.316 µM, first compound 0.1 µM
[11] = second compound 0.316 µM, first compound 0.316 µM
[12] = second compound 0.316 µM, first compound 1 µM
[13] = second compound 1 µM, first compound 0.0316 µM
[14] = second compound 1 µM, first compound 0.1 µM
[15] = second compound 1 µM, first compound 0.316 µM
[16] = second compound 1 µM, first compound 1 µM
[17] = second compound 3.16 µM, first compound 0.0316 µM
[18] = second compound 3.16 µM, first compound 0.1 µM
[19] = second compound 3.16 µM, first compound 0.316 µM
[20] = second compound 3.16 µM, first compound 1 µM
[21] = second compound 10 µM, first compound 0.0316 µM
[22] = second compound 10 µM, first compound 0.1 µM
[23] = second compound 10 µM, first compound 0.316 µM
[24] = second compound 10 µM, first compound 1 µM
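Note: spheroids exposed to drugs for seven days before viability read.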
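Throughout, for viability, T/C: 100% = DMSO vehicle control wells.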

`O=C(c1cc(Cc2n[nH]c(=O)c3ccccc23)ccc1F)N1CCN(C(=O)C2CC2)CC1` + COC1C(OC(N)=O)C(O)C(Oc2ccc3c(O)c(NC(=O)c4ccc(O)c(CC=C(C)C)c4)c(=O)oc3c2C)OC1(C)C was tested. Which IC50 (second compound 0.0316 µM) did it give?
The IC50 was over 10000 nM.

What about the IC50 (second compound 0.1 µM) of the same molecule?
The IC50 was over 10000 nM.

What about the IC50 (second compound 0.316 µM) of the same molecule?
Its IC50 is over 10000 nM.

What about the IC50 (second compound 1 µM) of the same molecule?
Its IC50 is over 10000 nM.

What about the IC50 (second compound 3.16 µM) of the same molecule?
The IC50 was over 10000 nM.

What about the IC50 (second compound 10 µM) of the same molecule?
The IC50 was over 10000 nM.

And the viability, T/C [1]?
The viability, T/C was 83.4%.

What about the viability, T/C [2] of the same molecule?
The viability, T/C was 89.7%.

And the viability, T/C [3]?
Its viability, T/C is 87.5%.

What about the viability, T/C [4] of the same molecule?
The viability, T/C was 110%.

What about the viability, T/C (second compound 0.0316 µM, first compound 3.16 µM) of the same molecule?
The viability, T/C was 79.9%.

What about the viability, T/C (second compound 0.0316 µM, first compound 10 µM) of the same molecule?
Its viability, T/C is 64.6%.

And the viability, T/C [5]?
The viability, T/C was 101%.

And the viability, T/C [6]?
The viability, T/C was 99.1%.

What about the viability, T/C [7] of the same molecule?
Its viability, T/C is 95.9%.

And the viability, T/C [8]?
Its viability, T/C is 90.8%.

What about the viability, T/C (second compound 0.1 µM, first compound 3.16 µM) of the same molecule?
The viability, T/C was 80.8%.

And the viability, T/C (second compound 0.1 µM, first compound 10 µM)?
The viability, T/C was 58%.

And the viability, T/C [9]?
Its viability, T/C is 78.4%.

What about the viability, T/C [10] of the same molecule?
The viability, T/C was 98.6%.

What about the viability, T/C [11] of the same molecule?
The viability, T/C was 90.3%.

What about the viability, T/C [12] of the same molecule?
The viability, T/C was 77.4%.

What about the viability, T/C (second compound 0.316 µM, first compound 3.16 µM) of the same molecule?
The viability, T/C was 88.7%.

What about the viability, T/C (second compound 0.316 µM, first compound 10 µM) of the same molecule?
Its viability, T/C is 85.2%.

And the viability, T/C [13]?
Its viability, T/C is 76.7%.

And the viability, T/C [14]?
Its viability, T/C is 84.6%.

And the viability, T/C [15]?
The viability, T/C was 102%.

And the viability, T/C [16]?
The viability, T/C was 87.5%.

And the viability, T/C (second compound 1 µM, first compound 3.16 µM)?
Its viability, T/C is 94.5%.

What about the viability, T/C (second compound 1 µM, first compound 10 µM) of the same molecule?
Its viability, T/C is 79.4%.

And the viability, T/C [17]?
Its viability, T/C is 119%.

And the viability, T/C [18]?
The viability, T/C was 85%.

And the viability, T/C [19]?
The viability, T/C was 107%.

What about the viability, T/C [20] of the same molecule?
Its viability, T/C is 75.9%.

And the viability, T/C (second compound 3.16 µM, first compound 3.16 µM)?
Its viability, T/C is 64.6%.

And the viability, T/C (second compound 3.16 µM, first compound 10 µM)?
Its viability, T/C is 84%.

And the viability, T/C [21]?
The viability, T/C was 94.9%.

And the viability, T/C [22]?
Its viability, T/C is 102%.

And the viability, T/C [23]?
The viability, T/C was 80.3%.

And the viability, T/C [24]?
Its viability, T/C is 83.8%.

What about the viability, T/C (second compound 10 µM, first compound 3.16 µM) of the same molecule?
Its viability, T/C is 81.7%.

What about the viability, T/C (second compound 10 µM, first compound 10 µM) of the same molecule?
Its viability, T/C is 69.5%.

Which results are given for `CC(=O)O[C@H]1C(=O)[C@@]2(C)[C@H]([C@H](OC(=O)c3ccccc3)[C@]3(O)C[C@H](OC(=O)[C@H](O)[C@@H](NC(=O)c4ccccc4)c4ccccc4)C(C)=C1C3(C)C)[C@]1(OC(C)=O)CO[C@@H]1C[C@@H]2O` + Nc1ccc(C#CCN(C(=O)Cc2ncc(C(F)(F)F)cc2C(F)(F)F)c2ccc(F)cc2)nn1?
IC50 (second compound 0.0316 µM): < 9.49 nM; IC50 (second compound 0.1 µM): < 9.49 nM; IC50 (second compound 0.316 µM): < 9.49 nM; IC50 (second compound 1 µM): < 9.49 nM; IC50 (second compound 3.16 µM): < 9.49 nM; IC50 (second compound 10 µM): < 9.49 nM; viability, T/C (second compound 0.0316 µM, first compound 0.00949 µM): 44.6%; viability, T/C (second compound 0.0316 µM, first compound 0.03 µM): 17.6%; viability, T/C (second compound 0.0316 µM, first compound 0.0949 µM): 13.5%; viability, T/C (second compound 0.0316 µM, first compound 0.3 µM): 18.1%; viability, T/C (second compound 0.0316 µM, first compound 0.949 µM): 16.1%; viability, T/C (second compound 0.0316 µM, first compound 3 µM): 16.3%; viability, T/C (second compound 0.1 µM, first compound 0.00949 µM): 34%; viability, T/C (second compound 0.1 µM, first compound 0.03 µM): 18%; viability, T/C (second compound 0.1 µM, first compound 0.0949 µM): 17.1%; viability, T/C (second compound 0.1 µM, first compound 0.3 µM): 17.1%; viability, T/C (second compound 0.1 µM, first compound 0.949 µM): 17.8%; viability, T/C (second compound 0.1 µM, first compound 3 µM): 21.7%; viability, T/C (second compound 0.316 µM, first compound 0.00949 µM): 43%; viability, T/C (second compound 0.316 µM, first compound 0.03 µM): 18.5%; viability, T/C (second compound 0.316 µM, first compound 0.0949 µM): 14.1%; viability, T/C (second compound 0.316 µM, first compound 0.3 µM): 11.7%; viability, T/C (second compound 0.316 µM, first compound 0.949 µM): 15.3%; viability, T/C (second compound 0.316 µM, first compound 3 µM): 15.9%; viability, T/C (second compound 1 µM, first compound 0.00949 µM): 30%; viability, T/C (second compound 1 µM, first compound 0.03 µM): 21.3%; viability, T/C (second compound 1 µM, first compound 0.0949 µM): 17.1%; viability, T/C (second compound 1 µM, first compound 0.3 µM): 15.5%; viability, T/C (second compound 1 µM, first compound 0.949 µM): 14.3%; viability, T/C (second compound 1 µM, first compound 3 µM): 16.9%; viability, T/C (second compound 3.16 µM, first compound 0.00949 µM): 40.9%; viability, T/C (second compound 3.16 µM, first compound 0.03 µM): 18.5%; viability, T/C (second compound 3.16 µM, first compound 0.0949 µM): 16.3%; viability, T/C (second compound 3.16 µM, first compound 0.3 µM): 13.8%; viability, T/C (second compound 3.16 µM, first compound 0.949 µM): 18.4%; viability, T/C (second compound 3.16 µM, first compound 3 µM): 19.4%; viability, T/C (second compound 10 µM, first compound 0.00949 µM): 47.3%; viability, T/C (second compound 10 µM, first compound 0.03 µM): 18.7%; viability, T/C (second compound 10 µM, first compound 0.0949 µM): 16.7%; viability, T/C (second compound 10 µM, first compound 0.3 µM): 15.5%; viability, T/C (second compound 10 µM, first compound 0.949 µM): 15.8%; viability, T/C (second compound 10 µM, first compound 3 µM): 17.5%

How did the IC50 (second compound 0.0316 µM) turn out when `COc1cccc(OCCCN)c1-c1cc(Nc2cnc(C#N)cn2)n[nH]1` + Nc1ccc(C#CCN(C(=O)Cc2ncc(C(F)(F)F)cc2C(F)(F)F)c2ccc(F)cc2)nn1 was run?
Its IC50 is 36.6 nM.

What about the IC50 (second compound 0.1 µM) of the same molecule?
Its IC50 is 61.6 nM.

And the IC50 (second compound 0.316 µM)?
The IC50 was 31.7 nM.

And the IC50 (second compound 1 µM)?
Its IC50 is 38.8 nM.

What about the IC50 (second compound 3.16 µM) of the same molecule?
Its IC50 is 54.9 nM.

What about the IC50 (second compound 10 µM) of the same molecule?
The IC50 was 45.5 nM.

And the viability, T/C (second compound 0.0316 µM, first compound 0.00316 µM)?
The viability, T/C was 95.1%.

And the viability, T/C (second compound 0.0316 µM, first compound 0.01 µM)?
The viability, T/C was 122%.

What about the viability, T/C [1] of the same molecule?
The viability, T/C was 54.7%.

And the viability, T/C [2]?
The viability, T/C was 34.4%.

And the viability, T/C [3]?
Its viability, T/C is 10.4%.

And the viability, T/C [4]?
Its viability, T/C is 7.92%.

What about the viability, T/C (second compound 0.1 µM, first compound 0.00316 µM) of the same molecule?
The viability, T/C was 111%.

And the viability, T/C (second compound 0.1 µM, first compound 0.01 µM)?
Its viability, T/C is 99.2%.

What about the viability, T/C [5] of the same molecule?
Its viability, T/C is 72.4%.

What about the viability, T/C [6] of the same molecule?
The viability, T/C was 35.2%.

What about the viability, T/C [7] of the same molecule?
Its viability, T/C is 9.41%.

And the viability, T/C [8]?
Its viability, T/C is 8.83%.

And the viability, T/C (second compound 0.316 µM, first compound 0.00316 µM)?
Its viability, T/C is 102%.

And the viability, T/C (second compound 0.316 µM, first compound 0.01 µM)?
The viability, T/C was 92.4%.

And the viability, T/C [9]?
Its viability, T/C is 44.1%.

What about the viability, T/C [10] of the same molecule?
Its viability, T/C is 28.3%.

What about the viability, T/C [11] of the same molecule?
Its viability, T/C is 8.42%.

What about the viability, T/C [12] of the same molecule?
Its viability, T/C is 8.2%.

And the viability, T/C (second compound 1 µM, first compound 0.00316 µM)?
The viability, T/C was 117%.

And the viability, T/C (second compound 1 µM, first compound 0.01 µM)?
The viability, T/C was 83.2%.

And the viability, T/C [13]?
Its viability, T/C is 62.1%.

And the viability, T/C [14]?
Its viability, T/C is 23.2%.

And the viability, T/C [15]?
Its viability, T/C is 10.4%.

And the viability, T/C [16]?
Its viability, T/C is 7.61%.

And the viability, T/C (second compound 3.16 µM, first compound 0.00316 µM)?
The viability, T/C was 93.1%.

And the viability, T/C (second compound 3.16 µM, first compound 0.01 µM)?
Its viability, T/C is 71%.

What about the viability, T/C [17] of the same molecule?
Its viability, T/C is 76.5%.

And the viability, T/C [18]?
The viability, T/C was 21.5%.

And the viability, T/C [19]?
The viability, T/C was 10.1%.

And the viability, T/C [20]?
Its viability, T/C is 8.73%.

What about the viability, T/C (second compound 10 µM, first compound 0.00316 µM) of the same molecule?
Its viability, T/C is 80.4%.

What about the viability, T/C (second compound 10 µM, first compound 0.01 µM) of the same molecule?
The viability, T/C was 88.1%.

And the viability, T/C [21]?
Its viability, T/C is 66.1%.

And the viability, T/C [22]?
The viability, T/C was 15.1%.

And the viability, T/C [23]?
Its viability, T/C is 11.3%.

What about the viability, T/C [24] of the same molecule?
Its viability, T/C is 12.5%.
